Assay results published in PubChem BioAssay (NCI).
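Interpolation was linear, between the two tested concentrations surrounding the appropriate level; five concentrations were tested over 48 hours in 96-well plates. GI50: concentration for 50% inhibition of growth. At the TGI there is no net growth.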

Assays:
Test in all cases: NCI-60 cell line screen, 48 h
NCI/ADR-RES ovarian = system: NCI/ADR-RES ovarian
SK-MEL-2 melanoma = system: SK-MEL-2 melanoma
OVCAR-4 ovarian = system: OVCAR-4 ovarian
HL-60(TB) leukemia = system: HL-60(TB) leukemia
OVCAR-8 ovarian = system: OVCAR-8 ovarian
LOX IMVI melanoma = system: LOX IMVI melanoma
KM12 colon = system: KM12 colon
BT-549 breast = system: BT-549 breast
HOP-62 NSCLC = system: HOP-62 NSCLC
UACC-62 melanoma = system: UACC-62 melanoma
SN12C renal = system: SN12C renal
NCI-H23 lung = system: NCI-H23 lung
SF-539 CNS = system: SF-539 CNS
OVCAR-5 ovarian = system: OVCAR-5 ovarian
MDA-MB-231 breast = system: MDA-MB-231 breast
IGROV1 ovarian = system: IGROV1 ovarian
786-0 renal = system: 786-0 renal
COLO 205 colon = system: COLO 205 colon
TK-10 renal = system: TK-10 renal
UACC-257 melanoma = system: UACC-257 melanoma
HT29 colon = system: HT29 colon
HCT-116 colon = system: HCT-116 colon
K-562 leukemia = system: K-562 leukemia
U251 CNS = system: U251 CNS
CCRF-CEM leukemia = system: CCRF-CEM leukemia
SR leukemia = system: SR leukemia
SF-295 CNS = system: SF-295 CNS
DU-145 prostate = system: DU-145 prostate
NCI-H460 lung = system: NCI-H460 lung
NCI-H226 lung = system: NCI-H226 lung
A498 renal = system: A498 renal
HS 578T breast = system: HS 578T breast
UO-31 renal = system: UO-31 renal
SK-MEL-5 melanoma = system: SK-MEL-5 melanoma
MOLT-4 leukemia = system: MOLT-4 leukemia
SK-OV-3 ovarian = system: SK-OV-3 ovarian
RPMI-8226 leukemia = system: RPMI-8226 leukemia
A549 NSCLC = system: A549 NSCLC
SF-268 CNS = system: SF-268 CNS
EKVX NSCLC = system: EKVX NSCLC
PC-3 prostate = system: PC-3 prostate
HCT-15 colon = system: HCT-15 colon
SW-620 colon = system: SW-620 colon
OVCAR-3 ovarian = system: OVCAR-3 ovarian
NCI-H522 lung = system: NCI-H522 lung
HOP-92 NSCLC = system: HOP-92 NSCLC
SNB-19 CNS = system: SNB-19 CNS
MCF7 breast = system: MCF7 breast
HCC-2998 colon = system: HCC-2998 colon

For `CCOC(=O)[C@@H](C)C[C@H](Cc1ccccc1)NC(=O)c1csc([C@@H](C[C@H](C(C)C)N(C)C(=O)[C@H](CCC(C)C)NC(=O)[C@H]2CCCCN2C)OC(C)=O)n1`, the GI50 (NCI/ADR-RES ovarian) was 143 nM, the TGI (NCI/ADR-RES ovarian) was 24000 nM and the GI50 (SK-MEL-2 melanoma) was less than 3.33 nM. The TGI (SK-MEL-2 melanoma) was 6650 nM, the GI50 (OVCAR-4 ovarian) was 497 nM and the TGI (OVCAR-4 ovarian) was greater than 33300 nM. It also gave a GI50 (HL-60(TB) leukemia) of less than 3.33 nM, a TGI (HL-60(TB) leukemia) of 10.4 nM and a GI50 (OVCAR-8 ovarian) of 12.5 nM. It also gave a TGI (OVCAR-8 ovarian) of 10100 nM, a GI50 (LOX IMVI melanoma) of 13.3 nM and a TGI (LOX IMVI melanoma) of 4850 nM. It also gave a GI50 (KM12 colon) of less than 3.33 nM, a TGI (KM12 colon) of 4810 nM and a GI50 (BT-549 breast) of 11.9 nM. For the same compound, the TGI (BT-549 breast) was 195 nM, the GI50 (HOP-62 NSCLC) was 9.32 nM and the TGI (HOP-62 NSCLC) was 5680 nM. It also gave a GI50 (UACC-62 melanoma) of less than 3.33 nM, a TGI (UACC-62 melanoma) of 6920 nM and a GI50 (SN12C renal) of 15.9 nM. It also gave a TGI (SN12C renal) of 4590 nM, a GI50 (NCI-H23 lung) of 12.9 nM and a TGI (NCI-H23 lung) greater than 33300 nM. It also gave a GI50 (SF-539 CNS) of 8.38 nM, a TGI (SF-539 CNS) of 28.9 nM and a GI50 (OVCAR-5 ovarian) of 11.5 nM. For the same compound, the TGI (OVCAR-5 ovarian) was 10300 nM, the GI50 (MDA-MB-231 breast) was 8.21 nM and the TGI (MDA-MB-231 breast) was 398 nM. The GI50 (IGROV1 ovarian) was 3.35 nM, the TGI (IGROV1 ovarian) was 29800 nM and the GI50 (786-0 renal) was 13.5 nM. It also gave a TGI (786-0 renal) of 5530 nM, a GI50 (COLO 205 colon) of 4.39 nM and a TGI (COLO 205 colon) of 35.2 nM. The GI50 (TK-10 renal) was 4120 nM, the TGI (TK-10 renal) was greater than 33300 nM and the GI50 (UACC-257 melanoma) was 4240 nM. For the same compound, the TGI (UACC-257 melanoma) was 10300 nM, the GI50 (HT29 colon) was less than 3.33 nM and the TGI (HT29 colon) was 81.1 nM. The GI50 (HCT-116 colon) was 4.24 nM, the TGI (HCT-116 colon) was 8170 nM and the GI50 (K-562 leukemia) was less than 3.33 nM. For the same compound, the TGI (K-562 leukemia) was 4450 nM, the GI50 (U251 CNS) was 7.58 nM and the TGI (U251 CNS) was 5920 nM. For the same compound, the GI50 (CCRF-CEM leukemia) was 6 nM, the TGI (CCRF-CEM leukemia) was 4350 nM and the GI50 (SR leukemia) was less than 3.33 nM. It also gave a TGI (SR leukemia) of 3770 nM, a GI50 (SF-295 CNS) of 5.75 nM and a TGI (SF-295 CNS) of 3680 nM. For the same compound, the GI50 (DU-145 prostate) was 8.92 nM, the TGI (DU-145 prostate) was 26200 nM and the GI50 (NCI-H460 lung) was 4.07 nM. The TGI (NCI-H460 lung) was 3780 nM, the GI50 (NCI-H226 lung) was 49.5 nM and the TGI (NCI-H226 lung) was 11600 nM. For the same compound, the GI50 (A498 renal) was 4.19 nM, the TGI (A498 renal) was 22.6 nM and the GI50 (HS 578T breast) was 9.22 nM. It also gave a TGI (HS 578T breast) of 3540 nM, a GI50 (UO-31 renal) of 22.7 nM and a TGI (UO-31 renal) of 5140 nM. For the same compound, the GI50 (SK-MEL-5 melanoma) was less than 3.33 nM, the TGI (SK-MEL-5 melanoma) was 92.7 nM and the GI50 (MOLT-4 leukemia) was 16.7 nM. For the same compound, the TGI (MOLT-4 leukemia) was 5100 nM, the GI50 (SK-OV-3 ovarian) was 9.29 nM and the TGI (SK-OV-3 ovarian) was 9260 nM. For the same compound, the GI50 (RPMI-8226 leukemia) was less than 3.33 nM, the TGI (RPMI-8226 leukemia) was 3830 nM and the GI50 (A549 NSCLC) was 14.5 nM. It also gave a TGI (A549 NSCLC) greater than 33300 nM, a GI50 (SF-268 CNS) of 20.5 nM and a TGI (SF-268 CNS) of 5870 nM. It also gave a GI50 (EKVX NSCLC) of 15.3 nM, a TGI (EKVX NSCLC) greater than 33300 nM and a GI50 (PC-3 prostate) of less than 3.33 nM. It also gave a TGI (PC-3 prostate) of 7150 nM, a GI50 (HCT-15 colon) of 13.8 nM and a TGI (HCT-15 colon) of 4190 nM. It also gave a GI50 (SW-620 colon) of less than 3.33 nM, a TGI (SW-620 colon) of 7140 nM and a GI50 (OVCAR-3 ovarian) of less than 3.33 nM. The TGI (OVCAR-3 ovarian) was 33.5 nM, the GI50 (NCI-H522 lung) was less than 3.33 nM and the TGI (NCI-H522 lung) was 7.08 nM. The GI50 (HOP-92 NSCLC) was 658 nM, the TGI (HOP-92 NSCLC) was 23300 nM and the GI50 (SNB-19 CNS) was less than 3.33 nM. It also gave a TGI (SNB-19 CNS) of 10700 nM, a GI50 (MCF7 breast) of less than 3.33 nM and a TGI (MCF7 breast) of 6300 nM. It also gave a GI50 (HCC-2998 colon) of less than 3.33 nM and a TGI (HCC-2998 colon) of 4280 nM.
